Results: PubChem BioAssay AID2060909 (Molecular Pharmacology Branch, DTP, NCI, 2025)

Tested on: 362531-283-R-J2-PDC complex spheroid viability
Experiment: Anticancer human tumor 362531-283-R-J2-PDC patient-derived colon adenocarcinoma cell line growth inhibition [RAS]
Conditions: for IC50: curve of first compound; for viability, T/C: stronger effect = lower value
Method in brief: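 Tumour cells grown as complex spheroids with HUVEC endothelial cells and mesenchymal stem cells, treated with RAS pathway inhibitor combinations. Each agent spans half-log steps from near clinical Cmax, or 10 microM where Cmax is unknown.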
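Note: spheroids exposed to the agents for 7 days before readout.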
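Throughout, for viability, T/C: luminescence viability as percent of DMSO vehicle control wells.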

SMILES: CC(C)n1nc(-c2ccc3oc(N)nc3c2)c2c(N)ncnc21 + CCn1c(-c2cc(N3CCN(C)CC3)cnc2C(C)OC)c2c3cc(ccc31)-c1csc(n1)CC(NC(=O)C1CC1C)C(=O)N1CCCC(N1)C(=O)OCC(C)(C)C2
- IC50 (second compound 0.000949 µM): 62.7 nM
- IC50 (second compound 0.003 µM): 67.9 nM
- IC50 (second compound 0.00949 µM): 48.1 nM
- IC50 (second compound 0.03 µM): 41.3 nM
- IC50 (second compound 0.0949 µM): 18.8 nM
- IC50 (second compound 0.3 µM): < 0.316 nM
- viability, T/C (second compound 0.000949 µM, first compound 0.000316 µM): 88.2%
- viability, T/C (second compound 0.000949 µM, first compound 0.001 µM): 97.4%
- viability, T/C (second compound 0.000949 µM, first compound 0.00316 µM): 98.9%
- viability, T/C (second compound 0.000949 µM, first compound 0.01 µM): 106%
- viability, T/C (second compound 0.000949 µM, first compound 0.0316 µM): 62.9%
- viability, T/C (second compound 0.000949 µM, first compound 0.1 µM): 41.2%
- viability, T/C (second compound 0.003 µM, first compound 0.000316 µM): 99.4%
- viability, T/C (second compound 0.003 µM, first compound 0.001 µM): 102%
- viability, T/C (second compound 0.003 µM, first compound 0.00316 µM): 102%
- viability, T/C (second compound 0.003 µM, first compound 0.01 µM): 100%
- viability, T/C (second compound 0.003 µM, first compound 0.0316 µM): 69.7%
- viability, T/C (second compound 0.003 µM, first compound 0.1 µM): 40%
- viability, T/C (second compound 0.00949 µM, first compound 0.000316 µM): 102%
- viability, T/C (second compound 0.00949 µM, first compound 0.001 µM): 111%
- viability, T/C (second compound 0.00949 µM, first compound 0.00316 µM): 93.6%
- viability, T/C (second compound 0.00949 µM, first compound 0.01 µM): 94.7%
- viability, T/C (second compound 0.00949 µM, first compound 0.0316 µM): 57.6%
- viability, T/C (second compound 0.00949 µM, first compound 0.1 µM): 35.9%
- viability, T/C (second compound 0.03 µM, first compound 0.000316 µM): 89.5%
- viability, T/C (second compound 0.03 µM, first compound 0.001 µM): 86.5%
- viability, T/C (second compound 0.03 µM, first compound 0.00316 µM): 89.6%
- viability, T/C (second compound 0.03 µM, first compound 0.01 µM): 92%
- viability, T/C (second compound 0.03 µM, first compound 0.0316 µM): 54%
- viability, T/C (second compound 0.03 µM, first compound 0.1 µM): 36.8%
- viability, T/C (second compound 0.0949 µM, first compound 0.000316 µM): 82.2%
- viability, T/C (second compound 0.0949 µM, first compound 0.001 µM): 84.1%
- viability, T/C (second compound 0.0949 µM, first compound 0.00316 µM): 77.1%
- viability, T/C (second compound 0.0949 µM, first compound 0.01 µM): 63.1%
- viability, T/C (second compound 0.0949 µM, first compound 0.0316 µM): 39%
- viability, T/C (second compound 0.0949 µM, first compound 0.1 µM): 35%
- viability, T/C (second compound 0.3 µM, first compound 0.000316 µM): 41.6%
- viability, T/C (second compound 0.3 µM, first compound 0.001 µM): 45.7%
- viability, T/C (second compound 0.3 µM, first compound 0.00316 µM): 37%
- viability, T/C (second compound 0.3 µM, first compound 0.01 µM): 21.1%
- viability, T/C (second compound 0.3 µM, first compound 0.0316 µM): 21.8%
- viability, T/C (second compound 0.3 µM, first compound 0.1 µM): 17.1%

SMILES: CC1(C)CCC(Nc2ncc(C(F)(F)F)c(-c3c[nH]c4c(P(C)(C)=O)c(C#N)ccc34)n2)CN1 (centres undefined) + C=CC(=O)N1CCN(c2nc(OCC3CCCN3C)nc3c(F)c(-c4nc(N)cc(C)c4C(F)(F)F)c(Cl)cc23)C(C)C1
- IC50 (second compound 0.00316 µM): > 300 nM
- IC50 (second compound 0.01 µM): > 300 nM
- IC50 (second compound 0.0316 µM): > 300 nM
- IC50 (second compound 0.1 µM): > 300 nM
- IC50 (second compound 0.316 µM): > 300 nM
- IC50 (second compound 1 µM): > 300 nM
- viability, T/C (second compound 0.00316 µM, first compound 0.000949 µM): 96.5%
- viability, T/C (second compound 0.00316 µM, first compound 0.003 µM): 104%
- viability, T/C (second compound 0.00316 µM, first compound 0.00949 µM): 103%
- viability, T/C (second compound 0.00316 µM, first compound 0.03 µM): 100%
- viability, T/C (second compound 0.00316 µM, first compound 0.0949 µM): 107%
- viability, T/C (second compound 0.00316 µM, first compound 0.3 µM): 99.1%
- viability, T/C (second compound 0.01 µM, first compound 0.000949 µM): 103%
- viability, T/C (second compound 0.01 µM, first compound 0.003 µM): 112%
- viability, T/C (second compound 0.01 µM, first compound 0.00949 µM): 104%
- viability, T/C (second compound 0.01 µM, first compound 0.03 µM): 98.8%
- viability, T/C (second compound 0.01 µM, first compound 0.0949 µM): 109%
- viability, T/C (second compound 0.01 µM, first compound 0.3 µM): 101%
- viability, T/C (second compound 0.0316 µM, first compound 0.000949 µM): 105%
- viability, T/C (second compound 0.0316 µM, first compound 0.003 µM): 105%
- viability, T/C (second compound 0.0316 µM, first compound 0.00949 µM): 103%
- viability, T/C (second compound 0.0316 µM, first compound 0.03 µM): 98.7%
- viability, T/C (second compound 0.0316 µM, first compound 0.0949 µM): 106%
- viability, T/C (second compound 0.0316 µM, first compound 0.3 µM): 96.5%
- viability, T/C (second compound 0.1 µM, first compound 0.000949 µM): 102%
- viability, T/C (second compound 0.1 µM, first compound 0.003 µM): 105%
- viability, T/C (second compound 0.1 µM, first compound 0.00949 µM): 104%
- viability, T/C (second compound 0.1 µM, first compound 0.03 µM): 103%
- viability, T/C (second compound 0.1 µM, first compound 0.0949 µM): 104%
- viability, T/C (second compound 0.1 µM, first compound 0.3 µM): 107%
- viability, T/C (second compound 0.316 µM, first compound 0.000949 µM): 109%
- viability, T/C (second compound 0.316 µM, first compound 0.003 µM): 103%
- viability, T/C (second compound 0.316 µM, first compound 0.00949 µM): 111%
- viability, T/C (second compound 0.316 µM, first compound 0.03 µM): 98.6%
- viability, T/C (second compound 0.316 µM, first compound 0.0949 µM): 112%
- viability, T/C (second compound 0.316 µM, first compound 0.3 µM): 93.5%
- viability, T/C (second compound 1 µM, first compound 0.000949 µM): 99.2%
- viability, T/C (second compound 1 µM, first compound 0.003 µM): 101%
- viability, T/C (second compound 1 µM, first compound 0.00949 µM): 98.9%
- viability, T/C (second compound 1 µM, first compound 0.03 µM): 108%
- viability, T/C (second compound 1 µM, first compound 0.0949 µM): 113%
- viability, T/C (second compound 1 µM, first compound 0.3 µM): 105%
